Assay results published in patent publication US10849878B2 (OBSHCHESTVO S OGRANICHENNOY OTVETSTVENNOSTYU “NORMOFARM”, priority 2015, dated 2020).

Assays:
rats [1] = conditions: comparison salts; cited from earlier work
rats [2] = assay: Porsolt helplessness test; assay type: in vivo, rat
[3] = in normal settings; cited from earlier work
[4] = 7 days after the dosing, LiAsc, LiCa 5 mg/kg, phenazepam 0.25 mg
[5] = 7 days after the drug withdrawal, 5 mg/kg
[6] = 28 days after the dosing, LiAsc, LiCa 5 mg/kg, phenazepam 0.25 mg
[7] = 28 days after the drug withdrawal, 5 mg/kg

NCCCC(=O)O [GABA lithium]
LD50, mg/kg in rats (rats [1]): 1800 mg/kg

O=C([O-])c1ccccc1.[Li+] [Lithium benzoate]
LD50, mg/kg in rats (rats [1]): 1200 mg/kg

[Br-].[Li+] [Lithium bromide]
LD50, mg/kg in rats (rats [1]): 2200 mg/kg

O=C([O-])[O-].[Li+].[Li+] [Lithium carbonate]
Adrenalin (rats [2]; [4]): 24.9 ± 9.5 µg/L | Duration of activity (rats [2]; [4]): 100.9 ± 64.9 s | Duration of immobility (rats [2]; [4]): 499.1 ± 53.0 s | Eosinophils (Dunger method) in mm^3 (rats [2]; [4]): 312.6 ± 68.1 in mm^3 | Noradrenalin (rats [2]; [4]): 69.3 ± 35.2 µg/L | Number of gastric ulcers (rats [2]; [4]): 5.9 ± 2.1 | Adrenalin (rats [2]; [5]): 29.6 ± 13.6 µg/L | Duration of activity (rats [2]; [5]): 91.8 ± 43.9 s | Duration of immobility (rats [2]; [5]): 507.9 ± 101.4 s | Eosinophils (Dunger method) in mm^3 (rats [2]; [5]): 299.3 ± 93.5 in mm^3 | Noradrenalin (rats [2]; [5]): 80.6 ± 29.7 µg/L | Number of gastric ulcers (rats [2]; [5]): 9.9 ± 3.7 | Adrenalin (rats [2]; [6]): 36.7 ± 9.6 µg/L | Duration of activity (rats [2]; [6]): 90.8 ± 67.3 s | Duration of immobility (rats [2]; [6]): 508.9 ± 107.2 s | Eosinophils (Dunger method) in mm^3 (rats [2]; [6]): 301.8 ± 102.3 in mm^3 | Noradrenalin (rats [2]; [6]): 76.83 ± 30.2 µg/L | Number of gastric ulcers (rats [2]; [6]): 7.3 ± 2.6 | Adrenalin (rats [2]; [7]): 37.1 ± 14.7 µg/L | Duration of activity (rats [2]; [7]): 93.8 ± 32.7 s | Duration of immobility (rats [2]; [7]): 504.4 ± 173.4 s | Eosinophils (Dunger method) in mm^3 (rats [2]; [7]): 281.2 ± 83.1 in mm^3 | Noradrenalin (rats [2]; [7]): 76.34 ± 18.6 µg/L | Number of gastric ulcers (rats [2]; [7]): 10.0 ± 4.8

[Cl-].[Li+] [Lithium chloride]
LD50, mg/kg in rats (rats [1]): 970 mg/kg

[F-].[Li+] [Lithium fluoride]
LD50, mg/kg in rats (rats [1]): 175 mg/kg

CC(O)C(=O)[O-].[Li+] (stereo not drawn) [Lithium lactate]
LD50, mg/kg in rats (rats [1]): 2100 mg/kg

[Li+].[O]=[Ta](=[O])[O-] [Lithium metatantalate]
LD50, mg/kg in rats (rats [1]): 750 mg/kg

O=C([O-])c1cccnc1.[Li+] [Lithium nicotinate]
LD50, mg/kg in rats (rats [1]): 2200 mg/kg

O=C([O-])CCCO.[Li+] [Lithium oxibutirate]
LD50, mg/kg in rats (rats [1]): 2200 mg/kg

O=C([O-])CCC(=O)[O-].[Li+].[Li+] [Lithium succynate]
LD50, mg/kg in rats (rats [1]): 2416 mg/kg

O=C1O[C@H]([C@@H](O)CO)C(O)=C1O [ascorbic acid]
plasma concentration [3]: 10000 to 20000 ng/mL

O=C1CN=C(c2ccccc2Cl)c2cc(Br)ccc2N1 [phenazepam]
Adrenalin (rats [2]; [4]): 6.8 ± 0.65 µg/L | Duration of activity (rats [2]; [4]): 426.7 ± 76.4 s | Duration of immobility (rats [2]; [4]): 173.3 ± 22.1 s | Eosinophils (Dunger method) in mm^3 (rats [2]; [4]): 969.1 ± 42.3 in mm^3 | Noradrenalin (rats [2]; [4]): 17.6 ± 1.95 µg/L | Number of gastric ulcers (rats [2]; [4]): 0.4 ± 0.1 | Adrenalin (rats [2]; [6]): 6.2 ± 0.57 µg/L | Duration of activity (rats [2]; [6]): 494.8 ± 60.4 s | Duration of immobility (rats [2]; [6]): 105.2 ± 20.1 s | Eosinophils (Dunger method) in mm^3 (rats [2]; [6]): 988.1 ± 42.3 in mm^3 | Noradrenalin (rats [2]; [6]): 16.2 ± 1.1 µg/L | Number of gastric ulcers (rats [2]; [6]): 0.1 ± 0.2

Lithium nitrate trihydrate
LD50, mg/kg in rats (rats [1]): 1400 mg/kg
